Assay results as given in ChEMBL document CHEMBL5120835, “Structure-activity relationships of 1,4-bis(arylsulfonamido)-benzene or naphthalene-N,N'-diacetic acids with varying C2-substituents as inhibitors of Keap1-Nrf2 protein-protein interaction” (Eur J Med Chem, 2022).
Calls of active or inactive are those of the source. The rule behind the calls is not given here.

Assays:
[1] = target: T1, Keap1/Nrf2 (Homo sapiens, UniProt Q14145); experiment: Inhibition of recombinant human Keap1 Kelch domain (321 to 609 residues) expressed in Escherichia coli BL21 (DE3)pLysS cells/Nrf2 (unknown origin) protein-protein interaction using FITC-LDEETGEFL-NH2 as fluorescent substrate preincubated with compound for 30 mins followed by substrate addition and measured after 1 hr by fluorescence polarization assay relative to control
T1 sequence (Q16236 whole entry, the tested form may be a part): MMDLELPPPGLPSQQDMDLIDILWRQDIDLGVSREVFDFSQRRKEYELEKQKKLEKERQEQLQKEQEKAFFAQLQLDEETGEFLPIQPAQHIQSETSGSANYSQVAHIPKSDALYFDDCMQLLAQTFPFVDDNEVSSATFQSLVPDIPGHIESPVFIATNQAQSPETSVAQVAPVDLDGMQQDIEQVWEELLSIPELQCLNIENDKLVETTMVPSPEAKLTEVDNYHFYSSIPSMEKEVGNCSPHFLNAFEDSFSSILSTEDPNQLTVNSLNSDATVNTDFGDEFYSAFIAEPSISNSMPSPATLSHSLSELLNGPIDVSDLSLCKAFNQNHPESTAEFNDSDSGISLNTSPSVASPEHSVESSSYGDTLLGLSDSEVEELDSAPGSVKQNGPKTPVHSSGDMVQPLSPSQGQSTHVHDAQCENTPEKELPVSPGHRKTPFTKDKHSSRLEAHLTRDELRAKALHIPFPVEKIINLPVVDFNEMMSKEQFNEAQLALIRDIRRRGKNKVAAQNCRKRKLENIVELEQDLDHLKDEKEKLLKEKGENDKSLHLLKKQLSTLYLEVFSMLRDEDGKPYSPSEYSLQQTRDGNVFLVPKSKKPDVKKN
T1 sequence (Q14145 whole entry, the tested form may be a part): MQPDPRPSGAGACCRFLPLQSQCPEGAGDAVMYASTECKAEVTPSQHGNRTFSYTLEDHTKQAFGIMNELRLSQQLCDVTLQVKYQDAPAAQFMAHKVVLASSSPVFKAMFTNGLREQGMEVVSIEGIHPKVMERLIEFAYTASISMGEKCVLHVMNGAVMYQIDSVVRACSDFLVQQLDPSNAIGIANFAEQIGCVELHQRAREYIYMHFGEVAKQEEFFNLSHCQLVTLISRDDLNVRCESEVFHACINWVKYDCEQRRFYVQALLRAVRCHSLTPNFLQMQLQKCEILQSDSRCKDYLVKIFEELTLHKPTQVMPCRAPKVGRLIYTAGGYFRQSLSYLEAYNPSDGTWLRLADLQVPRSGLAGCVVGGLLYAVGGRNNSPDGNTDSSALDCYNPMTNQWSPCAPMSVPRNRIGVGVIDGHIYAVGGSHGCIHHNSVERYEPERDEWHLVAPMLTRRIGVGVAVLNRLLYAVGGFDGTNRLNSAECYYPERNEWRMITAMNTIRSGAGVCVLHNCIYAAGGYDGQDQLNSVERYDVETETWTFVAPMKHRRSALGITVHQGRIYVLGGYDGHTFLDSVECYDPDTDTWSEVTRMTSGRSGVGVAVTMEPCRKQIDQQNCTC

[2] = target: T1, Keap1/Nrf2; experiment: Inhibition of His-tagged Keap1 kelch domain/Nrf2 (unknown origin) protein-protein interaction using FITC-LDEETGEFL-NH2 peptide as substrate preincubated for 30 mins followed by substrate addition and measured after 1 hr by TR-FRET assay
[3] = Lipophilicity, logD of the compound at pH 7.4; type: physicochemical; conditions: buffer
[4] = Lipophilicity, logD of the compound at pH 6.5; type: physicochemical; conditions: buffer
[5] = test system: NCM460D; experiment: Upregulation of GSTM3 mRNA expression in human NCM460D cells at 1 to 100 uM measured after 24 hrs by qRT-PCR analysis; type: functional, cell-based; conditions: dose 1-100 µM
[6] = test system: NCM460D; experiment: Upregulation of HMOX1 mRNA expression in human NCM460D cells at 1 to 100 uM measured after 24 hrs by qRT-PCR analysis; type: functional, cell-based; conditions: dose 1-100 µM
[7] = test system: NCM460D; experiment: Upregulation of NQO1 mRNA expression in human NCM460D cells at 1 to 100 uM measured after 24 hrs by qRT-PCR analysis; type: functional, cell-based; conditions: dose 1-100 µM
[8] = Upregulation of NQO1 mRNA expression in human NCM460D cells assessed as fold change in gene expression at 100 uM measured after 24 hrs by qRT-PCR analysis relative to control; type: functional

| Compound | IC50 [1] | other results |
| --- | --- | --- |
| COc1ccc(COc2cc(N(CC(=O)O)S(=O)(=O)c3ccc(OC)cc3)ccc2N(CC(=O)O)S(=O)(=O)c2ccc(OC)cc2)cc1 | 770 nM | – |
| Cc1ccc(S(=O)(=O)N(CC(=O)O)c2cc(OCc3ccc(F)cc3)c(N(CC(=O)O)S(=O)(=O)c3ccc(C)cc3)c3ccccc23)cc1 | 65 nM | IC50 [2]: 14.2 nM; logD ([3]; read-out: logD): 0.33; logD [4]: 1.94; Activity [5]: Active; Activity [6]: Active; Activity [7]: Active; fold change (FC) [8]: 15 |
| Cc1ccc(S(=O)(=O)N(Cc2nnn[nH]2)c2ccc(N(Cc3nnn[nH]3)S(=O)(=O)c3ccc(C)cc3)c(OCc3ccc(F)cc3)c2)cc1 | 3920 nM | – |
| COc1ccc(S(=O)(=O)N(CC(=O)O)c2ccc(N(CC(=O)O)S(=O)(=O)c3ccc(OC)cc3)c(Oc3ccc4ccccc4c3)c2)cc1 | 890 nM | – |
| COc1ccc(S(=O)(=O)N(CC(=O)O)c2ccc(N(CC(=O)O)S(=O)(=O)c3ccc(OC)cc3)c(OCc3cccc4ccccc34)c2)cc1 | 790 nM | – |
| O=C(O)CN(c1ccc(N(CC(=O)O)S(=O)(=O)c2ccc(-c3ccccc3)cc2)c(OCc2ccccc2)c1)S(=O)(=O)c1ccc(-c2ccccc2)cc1 | 750 nM | – |
| COc1ccc(S(=O)(=O)N(CC(=O)O)c2ccc(N(CC(=O)O)S(=O)(=O)c3ccc(OC)cc3)c(OCc3ccc(Oc4ccccc4)cc3)c2)cc1 | 830 nM | – |
| COc1ccc(S(=O)(=O)N(CC(=O)O)c2ccc(N(CC(=O)O)S(=O)(=O)c3ccc(OC)cc3)c(OCc3ccc(-c4ccccc4)cc3)c2)cc1 | 390 nM | – |
| Cc1ccc(S(=O)(=O)N(CC(=O)O)c2ccc(N(CC(=O)O)S(=O)(=O)c3ccc(C)cc3)c(OCc3ccc(-c4ccccc4)cc3)c2)cc1 | 440 nM | – |
| O=C(O)CN(c1ccc(N(CC(=O)O)S(=O)(=O)c2ccc(C(F)(F)F)cc2)c(OCc2ccccc2)c1)S(=O)(=O)c1ccc(C(F)(F)F)cc1 | 1760 nM | – |
| Cc1ccc(S(=O)(=O)N(CC(=O)O)c2ccc(N(CC(=O)O)S(=O)(=O)c3ccc(C)cc3)c(OCc3ccccc3)c2)cc1 | 450 nM | – |
| COc1ccc(S(=O)(=O)N(CC(=O)O)c2ccc(N(CC(=O)O)S(=O)(=O)c3ccc(OC)cc3)c(OCc3ccc(F)cc3)c2)cc1 | 910 nM | – |
| O=C(O)CN(c1ccc(N(CC(=O)O)S(=O)(=O)c2ccc(Br)cc2)c(OCc2ccccc2)c1)S(=O)(=O)c1ccc(Br)cc1 | 590 nM | – |
| Cc1ccc(S(=O)(=O)N(CC(=O)O)c2ccc(N(CC(=O)O)S(=O)(=O)c3ccc(C)cc3)c(OCc3ccc(F)cc3)c2)cc1 | 450 nM | – |
| Cc1ccc(S(=O)(=O)N(CC(=O)O)c2ccc(N(CC(=O)O)S(=O)(=O)c3ccc(C)cc3)c(OCc3ccc4ccccc4c3)c2)cc1 | 380 nM | – |
| COc1ccc(S(=O)(=O)N(CC(=O)O)c2ccc(N(CC(=O)O)S(=O)(=O)c3ccc(OC)cc3)c3ccccc23)cc1 | – | logD [3]: -2.93; logD [4]: -1.38 |
| O=C(O)CN(c1ccc(N(CC(=O)O)S(=O)(=O)c2ccc(F)cc2)c(OCc2ccccc2)c1)S(=O)(=O)c1ccc(F)cc1 | 2410 nM | – |
| Cc1ccc(S(=O)(=O)N(c2ccc(N([C@@H](C)C(=O)O)S(=O)(=O)c3ccc(C)cc3)c(OCc3ccc(F)cc3)c2)[C@@H](C)C(=O)O)cc1 | 1270 nM | – |
| COc1ccc(S(=O)(=O)N(CC(=O)O)c2ccc(N(CC(=O)O)S(=O)(=O)c3ccc(OC)cc3)c(OCCCc3ccccc3)c2)cc1 | 950 nM | – |
| COc1ccc(S(=O)(=O)N(CC(=O)O)c2ccc(N(CC(=O)O)S(=O)(=O)c3ccc(OC)cc3)c(Oc3ccc(-c4ccccc4)cc3)c2)cc1 | 1190 nM | – |
| COc1ccc(S(=O)(=O)N(CC(=O)O)c2ccc(N(CC(=O)O)S(=O)(=O)c3ccc(OC)cc3)c(COc3ccccc3)c2)cc1 | 2620 nM | – |
| Cc1cc(C)c(S(=O)(=O)N(CC(=O)O)c2ccc(N(CC(=O)O)S(=O)(=O)c3c(C)cc(C)cc3C)c(OCc3ccc(F)cc3)c2)c(C)c1 | 3730 nM | – |
| Cc1cccc(S(=O)(=O)N(CC(=O)O)c2ccc(N(CC(=O)O)S(=O)(=O)c3cccc(C)c3)c(OCc3ccccc3)c2)c1 | 1000 nM | – |
| COc1ccc(S(=O)(=O)N(CC(=O)O)c2ccc(N(CC(=O)O)S(=O)(=O)c3ccc(OC)cc3)c(OCc3cccnc3)c2)cc1 | 760 nM | – |
| COc1ccc(S(=O)(=O)N(CC(=O)O)c2ccc(N(CC(=O)O)S(=O)(=O)c3ccc(OC)cc3)c(-c3ccccc3)c2)cc1 | 3470 nM | – |
| COc1ccc(S(=O)(=O)N(CC(=O)O)c2ccc(N(CC(=O)O)S(=O)(=O)c3ccc(OC)cc3)c(N(C)Cc3ccccc3)c2)cc1 | 6170 nM | – |
| COc1ccc(S(=O)(=O)N(CC(=O)O)c2ccc(N(CC(=O)O)S(=O)(=O)c3ccc(OC)cc3)c(OCCc3ccccc3)c2)cc1 | 1020 nM | – |
| COc1ccc(S(=O)(=O)N(CC(=O)O)c2ccc(N(CC(=O)O)S(=O)(=O)c3ccc(OC)cc3)c(OCc3ccc(C)cc3)c2)cc1 | 620 nM | – |
| COc1ccc(S(=O)(=O)N(CC(=O)O)c2ccc(N(CC(=O)O)S(=O)(=O)c3ccc(OC)cc3)c(OCc3ccc4ccccc4c3)c2)cc1 | 480 nM | – |
